Assay results published in article doi:10.1101/2021.10.07.463234v2 (biorxiv, 2021).
Where a name gives a salt, the structure may show the parent alone.

biological target: SARS-CoV-2 Mac1 (Severe acute respiratory syndrome coronavirus 2, UniProt P0DTD1); assay: biochemical; conditions: 100 µM; inhibitor

Structure (SMILES)	%inhibition [%]
CC(=O)Oc1cc2c(s1)CCN(C(C(=O)C1CC1)c1ccccc1F)C2 (centres unmarked) [Prasugrel]	25.16
COc1ccc(C(CN(C)C)C2(O)CCCCC2)cc1 (centres unmarked) [Venlafaxine HCl]	0
Cc1ccc(Sc2ccccc2N2CCNCC2)c(C)c1 [Vortioxetine (Lu AA21004) HBr]	12.23
C[C@@H](O)[C@H]1C(=O)N2C(C(=O)O)=C(S[C@@H]3CN[C@H](CNS(N)(=O)=O)C3)[C@H](C)[C@H]12 [Doripenem Hydrate]	0
CC(C(=O)O)c1ccc(CC2CCCC2=O)cc1 (centres unmarked) [Loxoprofen]	5.364
CC1CNc2c(cccc2S(=O)(=O)N[C@@H](CCCNC(=N)N)C(=O)N2CC[C@@H](C)C[C@@H]2C(=O)O)C1 (some centres unmarked) [Argatroban]	4.667
CC(=O)NS(=O)(=O)c1ccc(N)cc1 [Sulfacetamide Sodium]	3.132
CCN(CC)CCNC(=O)c1c(C)[nH]c(/C=C2\C(=O)Nc3ccc(F)cc32)c1C [Sunitinib]	31.86
CC[C@H]1OC(=O)C[C@@H](O)[C@H](C)[C@@H](O[C@@H]2O[C@H](C)[C@@H](O)[C@H](N(C)C)[C@H]2O)[C@@H](CCN2C[C@H](C)C[C@H](C)C2)C[C@@H](C)C(=O)/C=C/C(C)=C/[C@@H]1CO[C@@H]1O[C@H](C)[C@@H](O)[C@@H](OC)[C@H]1OC [Tilmicosin]	23.11
CCC(=O)NS(=O)(=O)c1ccc(-c2c(-c3ccccc3)noc2C)cc1 [Parecoxib]	0
O=C(NC1CCN(CCCCC2(C(=O)NCC(F)(F)F)c3ccccc3-c3ccccc32)CC1)c1ccccc1-c1ccc(C(F)(F)F)cc1 [Lomitapide Mesylate]	34.98
O=C(O)Cc1ccccc1Nc1c(Cl)cccc1Cl [Diclofenac Diethylamine]	0
Cn1c(=O)cc(N2CCC[C@@H](N)C2)n(Cc2cc(F)ccc2C#N)c1=O [Trelagliptin succinate]	24.59

same assay, conditions: read-out: %inhibition

Structure (SMILES)	inhibition at 100 µM [%]
O=C(O)c1cc(=O)c2c(OCC(O)COc3cccc4oc(C(=O)O)cc(=O)c34)cccc2o1 [Disodium Cromoglycate]	3.63
O[C@@H](COc1cccc2ncccc12)CN1CCN(C2c3ccccc3[C@@H]3[C@H](c4ccccc42)C3(F)F)CC1 (some centres unmarked) [Zosuquidar (LY335979) 3HCl]	0
CCCNCC(O)COc1ccccc1C(=O)CCc1ccccc1 (centres unmarked) [Propafenone HCl]	0
O=C(O)c1ccc2c(c1)nc(Nc1cccc(Cl)c1)c1ccncc12 [Silmitasertib (CX-4945)]	0
Oc1c(I)cc(I)c2cccnc12 [Diiodohydroxyquinoline]	6.28
O=c1[nH]c(=O)n([C@H]2C[C@H](O)[C@@H](CO)O2)cc1F [Floxuridine]	0
COc1cc(NS(C)(=O)=O)ccc1Nc1c2ccccc2nc2ccccc12 [Amsacrine hydrochloride]	27
CO[C@H]1C[C@@H]2CC[C@@H](C)[C@@](O)(O2)C(=O)C(=O)N2CCCC[C@H]2C(=O)O[C@H]([C@H](C)C[C@@H]2CC[C@@H](OC(=O)C(C)(CO)CO)[C@H](OC)C2)CC(=O)[C@H](C)/C=C(\C)[C@@H](O)[C@@H](OC)C(=O)[C@H](C)C[C@H](C)/C=C/C=C/C=C/1C [Temsirolimus (CCI-779, NSC 683864)]	14.6
N#C[C@@H]1C[C@@H]2C[C@@H]2N1C(=O)[C@@H](N)C12CC3CC(CC(O)(C3)C1)C2 [Saxagliptin hydrate]	8.79
Cc1c(C(C)C)c(=O)n(-c2ccccc2)n1C [Propyphenazone (4-Isopropylantipyrine)]	0
O=C(Nc1cccc2c(=O)cc(-c3nnn[nH]3)oc12)c1ccc(OCCCCc2ccccc2)cc1 [Pranlukast]	4.22
Nc1nc2ccc(OC(F)(F)F)cc2s1 [Riluzole]	0
COC(=O)N[C@H](C(=O)N1CCC[C@H]1c1ncc(-c2ccc(-c3ccc(-c4cnc([C@@H]5CCCN5C(=O)[C@@H](NC(=O)OC)C(C)C)[nH]4)cc3)cc2)[nH]1)C(C)C [Daclatasvir (BMS-790052)]	1.65
Nc1ccn([C@H]2CC[C@@H](CO)O2)c(=O)n1 [Zalcitabine]	19.2
S=P(N1CC1)(N1CC1)N1CC1 [Thiotepa]	21.5
CNC(=C[N+](=O)[O-])NCCSCc1ccc(CN(C)C)o1 [Ranitidine Hydrochloride]	10.7
CCN(CC)C(=O)/C(C#N)=C/c1cc(O)c(O)c([N+](=O)[O-])c1 [Entacapone]	0
C[C@H](CCC(=O)O)[C@H]1CC[C@H]2[C@@H]3CC[C@@H]4C[C@H](O)CC[C@]4(C)[C@H]3CC[C@]12C [Lithocholic acid]	0
C[C@]12CC[C@@H]3c4ccc(O)cc4CC[C@H]3[C@@H]1C[C@@H](O)[C@@H]2O [Estriol]	0
C[C@H]1COc2c(C3(N)CC3)c(F)cc3c(=O)c(C(=O)O)cn1c23 [Pazufloxacin mesylate]	0

Structure (SMILES)	inhibition at 100 µM [%]
CCOc1ccc(Cc2cc([C@]34OC[C@](CO)(O3)[C@@H](O)[C@H](O)[C@H]4O)ccc2Cl)cc1 [Ertugliflozin]	26.2
Cc1ccc(-c2cc(C(F)(F)F)nn2-c2ccc(S(N)(=O)=O)cc2)cc1 [Celecoxib]	10.4
CCc1c(C)[nH]c2c1C(=O)C(CN1CCOCC1)CC2 (centres unmarked) [Molindone hydrochloride]	0
CNC[C@@H](O)c1ccc(O)c(O)c1 [L-Adrenaline]	31.6
CO/N=C(\C(=O)N[C@@H]1C(=O)N2C(C(=O)O)=C(C[N+]3(C)CCCC3)CS[C@H]12)c1csc(N)n1 [Cefepime Dihydrochloride Monohydrate]	0
CN(C)CCn1nnnc1SCC1=C(C(=O)O)N2C(=O)[C@@H](NC(=O)Cc3csc(N)n3)[C@H]2SC1 [Cefotiam hydrochloride]	23.3
C[C@H]1O[C@@H](O[C@H]2[C@@H](O)C[C@H](O[C@H]3[C@@H](O)C[C@H](O[C@H]4CC[C@@]5(C)[C@H](CC[C@@H]6[C@@H]5C[C@@H](O)[C@]5(C)[C@@H](C7=CC(=O)OC7)CC[C@]65O)C4)O[C@@H]3C)O[C@@H]2C)C[C@H](O)[C@@H]1O [Digoxin]	13.2
CNCC[C@@H](Oc1ccccc1C)c1ccccc1 [Atomoxetine HCl]	0
COc1cc(OC)c(/C=C/S(=O)(=O)Cc2ccc(OC)c(NCC(=O)O)c2)c(OC)c1 [Rigosertib (ON-01910)]	0.0877
O=c1cc[nH]c(=O)[nH]1 [Uracil]	0
CC1(C)O[C@@H]2C[C@H]3[C@@H]4CCC5=CC(=O)CC[C@]5(C)[C@@]4(F)[C@@H](O)C[C@]3(C)[C@]2(C(=O)CCl)O1 [Halcinonide]	25.9
CC(=O)OC(C)C[N+](C)(C)C (centres unmarked) [Methacholine chloride]	8.52
Nc1nccs1 [Aminothiazole]	1.18
CC1=C(/C=C/C(C)=C/C=C/C(C)=C/C(=O)O)C(C)(C)CCC1 [Tretinoin]	0
O=c1c(-c2ccc(O)cc2)coc2cc(O)cc(O)c12 [Genistein]	1.56
CN(C)[C@@H](CCOc1cccc2ccccc12)c1ccccc1 [Dapoxetine HCl]	35.7
O=C1NC(=O)[C@@H](c2cn3c4c(cccc24)CCC3)[C@@H]1c1c[nH]c2ccccc12 [Tivantinib (ARQ 197)]	1.02
O=C(O)O [Sodium carbonate]	0.406
CS(=O)(=O)Nc1cc2occ(NC=O)c(=O)c2cc1Oc1ccccc1 [Iguratimod]	4.14
Nc1nc2c(ncn2COCCO)c(=O)[nH]1 [Aciclovir]	19.8

Structure (SMILES)	inhibition at 100 µM [%]
N[C@@H](CS)C(=O)O [L-Cysteine HCl]	0
CS(=O)(=O)N1CCN(Cc2cc3nc(-c4cccc5[nH]ncc45)nc(N4CCOCC4)c3s2)CC1 [Pictilisib (GDC-0941)]	10.2
CC(=O)[C@@]1(O)CC[C@H]2[C@@H]3CCC4=CC(=O)CCC4=C3[C@@H](c3ccc(N(C)C)cc3)C[C@@]21C [Ulipristal]	0.321
COc1cc(/C=C/C(=O)N2CCN(CC(=O)N3CCCC3)CC2)cc(OC)c1OC [Cinepazide maleate]	24.7
N[C@@H]1CN(c2c(F)cc3c(=O)c(C(=O)O)cn([C@@H]4C[C@@H]4F)c3c2Cl)CC12CC2 [Sitafloxacin Hydrate]	5.2
CC(C)c1nc(CN(C)C(=O)N[C@H](C(=O)N[C@@H](Cc2ccccc2)C[C@H](O)[C@H](Cc2ccccc2)NC(=O)OCc2cncs2)C(C)C)cs1 [Ritonavir]	0
Cc1cccc(C(C)c2c[nH]cn2)c1C (centres unmarked) [Medetomidine HCl]	21.9
CCN(CC)CCNC(=O)c1c(C)[nH]c(/C=C2\C(=O)Nc3ccc(F)cc32)c1C [Sunitinib Malate]	16.2
CCCS(=O)(=O)Nc1ccc(F)c(C(=O)c2c[nH]c3ncc(-c4ccc(Cl)cc4)cc23)c1F [Vemurafenib (PLX4032, RG7204)]	2.37
O=C1/C(=C2\Nc3ccccc3C2=O)Nc2ccccc21 [Indigo]	9.76
CC(=O)OCC(=O)[C@@]12N=C(C)O[C@@H]1C[C@H]1[C@@H]3CCC4=CC(=O)C=C[C@]4(C)[C@H]3[C@@H](O)C[C@@]12C [Deflazacort]	37.4
Cc1cc(O)ccc1Cl [Chlorocresol]	24.2
CCN[C@H]1CN(CCCOC)S(=O)(=O)c2sc(S(N)(=O)=O)cc21 [Brinzolamide]	0
Cc1nc2n(c(=O)c1CCN1CCC(c3noc4cc(F)ccc34)CC1)CCCC2O (centres unmarked) [Paliperidone]	1.55
CCOC(=O)/C=C(C)/C=C/C=C(C)/C=C/c1c(C)cc(OC)c(C)c1C [Etretinate]	24.9
Nc1ccn([C@@H]2CS[C@H](CO)O2)c(=O)n1 [Lamivudine]	0
Cc1ccccc1-n1c(CF)nc2ccc(N)cc2c1=O [Afloqualone]	0
CC1(C)[C@H](C(=O)O)N2C(=O)C[C@H]2S1(=O)=O [Sulbactam sodium]	16.4
